Measurements published in patent US20240343717A1, “MICROBIOCIDAL PYRAZOLE DERIVATIVES” (SYNGENTA CROP PROTECTION AG, priority 2021, published 2024).

Key:
Assay type in all cases: cell-based
[1] = test system: Mycosphaerella graminicola (Septoria tritici); assay: Mycosphaerella graminicola (Septoria tritici) / liquid culture (Septoria blotch); details: Zymoseptoria tritici, growth inhibition photometrically 4-5 days after application, read-out: control of Mycosphaerella graminicola
Experimental: (§1) Example B16: Mycosphaerella graminicola (Septoria tritici)/Liquid Culture (Septoria Blotch) Conidia of the fungus from cryogenic storage are directly mixed into nutrient broth (PDB potato dextrose broth). After placing a (DMSO) solution of test compound into a microtiter plate (96-well format), the nutrient broth containing the fungal spores is added. The test plates are incubated at 24° C. and the inhibition of growth is determined photometrically 4-5 days after application.

[2] = test system: Monographella nivalis (Microdochium nivale); assay: Monographella nivalis (Microdochium nivale) / liquid culture (foot rot cereals); details: growth inhibition photometrically 4-5 days after application, read-out: control of Monographella nivalis
Experimental: as §1, with “B9: Monographella nivalis (Microdochium nivale)/Liquid” for “B16: Mycosphaerella graminicola (Septoria tritici)/Liquid”, “(Foot Rot Cereals)” for “(Septoria Blotch)”

[3] = test system: Botryotinia fuckeliana (Botrytis cinerea); assay: Botryotinia fuckeliana (Botrytis cinerea) / liquid culture (gray mould); details: growth inhibition photometrically 3-4 days after application, read-out: control of Botryotinia fuckeliana
Experimental: as §1, with “B2: Botryotinia fuckeliana (Botrytis cinerea)/Liquid” for “B16: Mycosphaerella graminicola (Septoria tritici)/Liquid”, “(Gray Mould)” for “(Septoria Blotch)”, “(Vogels” for “(PDB potato dextrose”, “3-4” for “4-5”

[4] = test system: Glomerella lagenarium (Colletotrichum lagenarium); assay: Glomerella lagenarium (Colletotrichum lagenarium) / liquid culture (anthracnose); details: Colletotrichum orbiculare, growth inhibition photometrically 3-4 days after application, read-out: control of Glomerella lagenarium
Experimental: as §1, with “B3: Glomerella lagenarium (Colletotrichum lagenarium)/Liquid” for “B16: Mycosphaerella graminicola (Septoria tritici)/Liquid”, “(Anthracnose)” for “(Septoria Blotch)”, “measured” for “determined”, “3-4” for “4-5”

| Compound | inhibition of growth at 20 ppm [1] [%] | inhibition of growth at 20 ppm [2] [%] | inhibition of growth at 20 ppm [3] [%] | inhibition of growth at 20 ppm [4] [%] |
| --- | --- | --- | --- | --- |
| COc1cccc(C(C)(CNC(=O)c2cc(-c3ccc(F)cc3OC)on2)c2cnn(C)c2)n1 (stereo not drawn) [Compound P-99, 5-(4-fluoro-2-methoxy-phenyl)-N-[2-(6-methoxy-2-pyridyl)-2-(1-methylpyrazol-4-yl)propyl]isoxazole-3-carboxamide] | ≥ 80 | – | – | – |
| Cc1noc(C)c1-c1cccc(C(C)(CNC(=O)c2cc(-c3ccc(F)cc3F)on2)c2cnn(C)c2)n1 (stereo not drawn) [Compound P-94, 5-(2,4-difluorophenyl)-N-[2-[6-(3,5-dimethylisoxazol-4-yl)-2-pyridyl]-2-(1-methylpyrazol-4-yl)propyl]isoxazole-3-carboxamide] | ≥ 80 | ≥ 80 | – | – |
| Cn1cc(C(C)(CNC(=O)c2cc(-c3ccc(F)cc3F)on2)c2cc(O)cc(Cl)n2)cn1 (stereo not drawn) [Compound P-38, N-[2-(6-chloro-4-hydroxy-2-pyridyl)-2-(1-methylpyrazol-4-yl)propyl]-5-(2,4-difluorophenyl) isoxazole-3-carboxamide] | ≥ 80 | – | ≥ 80 | – |
| COC(=O)c1ccc(C(C)(CNC(=O)c2cc(-c3ccc(F)cc3F)on2)c2cnn(C)c2)nc1 (stereo not drawn) [Compound P-55, methyl 6-[2-[[5-(2,4-difluorophenyl)isoxazole-3-carbonyl]amino]-1-methyl-1-(1-methylpyrazol-4-yl)ethyl]pyridine-3-carboxylate] | ≥ 80 | ≥ 80 | ≥ 80 | ≥ 80 |
| Cc1ncc(-c2cccc(C(C)(CNC(=O)c3cc(-c4ccc(F)cc4F)on3)c3cnn(C)c3)n2)cc1F (stereo not drawn) [Compound P-97, 5-(2,4-difluorophenyl)-N-[2-[6-(5-fluoro-6-methyl-3-pyridyl)-2-pyridyl]-2-(1-methylpyrazol-4-yl)propyl]isoxazole-3-carboxamide] | ≥ 80 | – | – | – |
| COc1ccc(C(C)=O)nc1C(C)(CNC(=O)c1cc(-c2ccc(F)cc2F)on1)c1cnn(C)c1 (stereo not drawn) [Compound P-112] | ≥ 80 | – | – | – |
| Cn1cc(C(CNC(=O)c2cc(-c3ccc(F)cc3F)on2)c2cccc(Cl)n2)cn1 (stereo not drawn) [Compound P-13, N-[2-(6-chloro-2-pyridyl)-2-(1-methylpyrazol-4-yl)ethyl]-5-(2,4-difluorophenyl)isoxazole-3-carboxamide] | ≥ 80 | ≥ 80 | ≥ 80 | – |
| Cn1cc(C(C)(CNC(=O)c2cc(-c3ccc(F)cc3F)on2)c2cc(Br)ccn2)cn1 (stereo not drawn) [Compound P-66, N-[2-(4-bromo-2-pyridyl)-2-(1-methylpyrazol-4-yl)propyl]-5-(2,4-difluorophenyl) isoxazole-3-carboxamide] | ≥ 80 | – | – | – |
| Cc1c(-c2cccc(C(C)(CNC(=O)c3cc(-c4ccc(F)cc4F)on3)c3cnn(C)c3)n2)ccnc1F (stereo not drawn) [Compound P-98, 5-(2,4-difluorophenyl)-N-[2-[6-(2-fluoro-3-methyl-4-pyridyl)-2-pyridyl]-2-(1-methylpyrazol-4-yl)propyl]isoxazole-3-carboxamide] | ≥ 80 | – | – | – |
| Cn1cc(C(C)(CNC(=O)c2cc(-c3ccc(F)cc3F)on2)c2cccc(C3(C#N)CC3)n2)cn1 (stereo not drawn) [Compound P-104, N-[2-[6-(1-cyanocyclopropyl)-2-pyridyl]-2-(1-methylpyrazol-4-yl)propyl]-5-(2,4-difluorophenyl) isoxazole-3-carboxamide] | ≥ 80 | ≥ 80 | – | – |
| CC(=O)c1ccc(C(C)(CNC(=O)c2cc(-c3ccc(F)cc3F)on2)c2cnn(C)c2)nc1 (stereo not drawn) [Compound P-57, N-[2-(5-acetyl-2-pyridyl)-2-(1-methylpyrazol-4-yl)propyl]-5-(2,4-difluorophenyl) isoxazole-3-carboxamide] | ≥ 80 | ≥ 80 | – | ≥ 80 |
| Cn1cc(C(C)(CNC(=O)c2cc(-c3ccc(F)cc3F)on2)c2cc(C#N)cc(Cl)n2)cn1 (stereo not drawn) [Compound P-41, N-[2-(6-chloro-4-cyano-2-pyridyl)-2-(1-methylpyrazol-4-yl)propyl]-5-(2,4-difluorophenyl) isoxazole-3-carboxamide] | ≥ 80 | – | ≥ 80 | – |
| Cn1cc(C(C)(CNC(=O)c2cc(-c3ccc(Cl)cc3Cl)on2)c2cccc(Cl)n2)cn1 (stereo not drawn) [Compound P-28] | ≥ 80 | ≥ 80 | – | ≥ 80 |
| Cn1cc(C(C)(CNC(=O)c2cc(-c3ccc(F)cc3F)on2)c2ccc(Br)cn2)cn1 (stereo not drawn) [Compound P-33, N-[2-(5-bromo-2-pyridyl)-2-(1-methylpyrazol-4-yl)propyl]-5-(2,4-difluorophenyl) isoxazole-3-carboxamide] | ≥ 80 | ≥ 80 | – | ≥ 80 |
| Cc1cc(C(=O)NCC(C)(c2cnn(C)c2)c2cccc(Cl)n2)no1 (stereo not drawn) [Compound P-77, N-[2-(6-chloro-2-pyridyl)-2-(1-methylpyrazol-4-yl)propyl]-5-methyl-isoxazole-3-carboxamide] | ≥ 80 | – | – | – |
| Cn1cc(C(C)(CNC(=O)c2nnc(-c3ccc(F)cc3F)s2)c2ncccc2Cl)cn1 (stereo not drawn) [Compound P-1, N-[2-(3-chloro-2-pyridyl)-2-(1-methylpyrazol-4-yl)propyl]-5-(2,4-difluorophenyl)-1,3,4-thiadiazole-2-carboxamide] | ≥ 80 | ≥ 80 | ≥ 80 | – |
| Cc1cncc(-c2cccc(C(C)(CNC(=O)c3cc(-c4ccc(F)cc4F)on3)c3cnn(C)c3)n2)c1 (stereo not drawn) [Compound P-91, 5-(2,4-difluorophenyl)-N-[2-(1-methylpyrazol-4-yl)-2-[6-(5-methyl-3-pyridyl)-2-pyridyl]propyl] isoxazole-3-carboxamide] | ≥ 80 | ≥ 80 | – | – |
| COc1cc(Cl)nc([C@](C)(CNC(=O)c2cc(-c3ccc(F)cc3F)no2)c2cnn(C)c2)c1 [Compound P-47, N-[(2S)-2-(6-chloro-4-methoxy-2-pyridyl)-2-(1-methylpyrazol-4-yl)propyl]-3-(2,4-difluorophenyl) isoxazole-5-carboxamide] | ≥ 80 | ≥ 80 | ≥ 80 | – |
| Cn1cc(C(C)(CNC(=O)c2cc(-c3ccc(F)cc3F)on2)c2cccc(-c3ccnn3C)n2)cn1 (stereo not drawn) [Compound P-95, 5-(2,4-difluorophenyl)-N-[2-(1-methylpyrazol-4-yl)-2-[6-(2-methylpyrazol-3-yl)-2-pyridyl]propyl] isoxazole-3-carboxamide] | ≥ 80 | ≥ 80 | – | – |
| COc1cc(C#N)nc(C(C)(CNC(=O)c2cc(-c3ccc(F)cc3F)on2)c2cnn(C)c2)c1 (stereo not drawn) [Compound P-67, N-[2-(6-cyano-4-methoxy-2-pyridyl)-2-(1-methylpyrazol-4-yl)propyl]-5-(2,4-difluorophenyl) isoxazole-3-carboxamide] | ≥ 80 | ≥ 80 | – | – |
| Cc1cc(-c2cccc(C(C)(CNC(=O)c3cc(-c4ccc(F)cc4F)on3)c3cnn(C)c3)n2)ccn1 (stereo not drawn) [Compound P-89, 5-(2,4-difluorophenyl)-N-[2-(1-methylpyrazol-4-yl)-2-[6-(2-methyl-4-pyridyl)-2-pyridyl]propyl] isoxazole-3-carboxamide] | ≥ 80 | ≥ 80 | – | – |
| COc1ccc(C(C)(CNC(=O)c2cc(-c3ccc(F)cc3F)on2)c2cnn(C)c2)nc1Br (stereo not drawn) [Compound P-109, N-[2-(6-bromo-5-methoxy-2-pyridyl)-2-(1-methylpyrazol-4-yl)propyl]-5-(2,4-difluorophenyl) isoxazole-3-carboxamide] | ≥ 80 | – | – | – |
| Cn1cc(C(C)(CNC(=O)c2cc(-c3ccc(F)cc3F)on2)c2cc(Cl)ccn2)cn1 (stereo not drawn) [Compound P-18, N-[2-(4-chloro-2-pyridyl)-2-(1-methylpyrazol-4-yl)propyl]-5-(2,4-difluorophenyl) isoxazole-3-carboxamide] | ≥ 80 | ≥ 80 | – | – |
| COc1ncc(-c2cccc(C(C)(CNC(=O)c3cc(-c4ccc(F)cc4F)on3)c3cnn(C)c3)n2)c(OC)n1 (stereo not drawn) [Compound P-88, 5-(2,4-difluorophenyl)-N-[2-[6-(2,4-dimethoxypyrimidin-5-yl)-2-pyridyl]-2-(1-methylpyrazol-4-yl)propyl]isoxazole-3-carboxamide] | ≥ 80 | ≥ 80 | ≥ 80 | – |
| Cn1cc(C(C)(CNC(=O)c2cc(-c3ccc(F)cc3F)on2)c2ccc(N)cn2)cn1 (stereo not drawn) [Compound P-58, N-[2-(5-amino-2-pyridyl)-2-(1-methylpyrazol-4-yl)propyl]-5-(2,4-difluorophenyl) isoxazole-3-carboxamide] | – | ≥ 80 | – | – |
